Laboratory results: ChEMBL document CHEMBL5360639, “Cannabidiol Analogue CIAC001 for the Treatment of Morphine-Induced Addiction by Targeting PKM2” (J Med Chem, 2023)
Calls of active or inactive are those of the source. The rule behind the calls is not given here.

Key:
[1] = tested on: BV-2; test: Anti-neuroinflammatory activity in mouse BV-2 cells assessed as inhibition of LPS-induced NO production incubated for 24 hrs by microplate reader analysis; assay type: functional, cell-based; conditions: BV-2, 24 h
[2] = Cytotoxicity against mouse BV-2 cells assessed as reduction in cell viability by crystal violet staining based assay; assay type: toxicity
[3] = Therapeutic index, ratio of IC50 for cytotoxicty against mouse BV-2 cells assessed as reduction in cell viability by crystal violet staining based assay to IC50 for nti-neuroinflammatory activity in mouse BV-2 cells assessed as inhibition of LPS-induced NO production; assay type: toxicity; conditions: read-out: Ratio IC50
[4] = tested on: BV-2; test: Anti-neuroinflammatory activity in LPS-induced mouse BV-2 cells assessed as reduction in TNF-alpha mRNA expression at 1 to 10 uM by qRT-PCR analysis; assay type: functional, cell-based; conditions: dose 1-10 µM
[5] = tested on: BV-2; test: Anti-neuroinflammatory activity in LPS-induced mouse BV-2 cells assessed as reduction in IL-6 mRNA expression at 1 to 10 uM by qRT-PCR analysis; assay type: functional, cell-based; conditions: dose 1-10 µM
[6] = tested on: BV-2; test: Anti-neuroinflammatory activity in LPS-induced mouse BV-2 cells assessed as reduction in IL-1beta mRNA expression at 10 uM by qRT-PCR analysis; assay type: functional, cell-based
[7] = tested on: Mus musculus; test: Anti-neuroinflammatory activity in naloxone precipitated morphine-induced BALB/c mouse assessed as reduction in naloxone precipitated withdrawal jumps at 0.2 microg/kg, ip administered with morphine 3 times daily for 3 days and on day 4 for 3 hrs prior to compound addition for 30 mins before naloxone addition and measured after 15 mins; assay type: functional, organism-based; conditions: dose 0.2 µg/kg, time 45.0 min
[8] = tested on: Mus musculus; test: Anti-neuroinflammatory activity in morphine-induced BALB/c mouse assessed as inhibition of behavioral sensitization at 0.2 mg/kg, ip administered once daily for 7 days; assay type: functional, organism-based; conditions: time 7.0 day
[9] = tested on: Mus musculus; test: Anti-neuroinflammatory activity in morphine-induced BALB/c mouse assessed as […] in locomotor activity 0.2 mg/kg, ip administered once daily for 7 days and measured after 60 mins; assay type: functional, organism-based; conditions: time 169.0 hrs
[10] = Cmax in BALB/c mouse at 10 mg/kg, po measured upto 4 hrs by mS-HPLC analysis; assay type: ADME, organism-based; set-up: time < 4 hrs, dose 10 mg/kg, route po; conditions: in vivo
[11] = Half life in BALB/c mouse at 10 mg/kg, po measured upto 4 hrs by mS-HPLC analysis; assay type: ADME, organism-based; conditions: in vivo
[12] = MRT in BALB/c mouse at 10 mg/kg, po measured upto 4 hrs by mS-HPLC analysis; assay type: ADME, organism-based; conditions: in vivo
[13] = Ratio of drug concentration in blood to plasma in BALB/c mouse at 10 mg/kg, po measured at 3 hrs; assay type: ADME, organism-based; conditions: in vivo
[14] = AUC (0 to t) in BALB/c mouse at 10 mg/kg, po measured upto 4 hrs by mS-HPLC analysis; assay type: ADME, organism-based; conditions: in vivo

| Compound | IC50 [1] [µM] | IC50 [2] [µM] | selectivity ratio [3] | also measured |
| --- | --- | --- | --- | --- |
| C=C(C)[C@@H]1CCC(C)=C[C@H]1c1c(O)cc(CCCCC)cc1O [CANNABIDIOL] | 12.3 | 8.5 | 0.7 | Activity [4]: inactive; Activity [5]: inactive; Activity [6]: inactive; Activity [7]: inactive; Activity [8]: inactive; Activity [9]: inactive; Cmax [10]: 98.1 ng/g; half-life [11]: 30 min; MRT [12]: 42 min; Ratio [13]: < 100%; AUCt [14]: 66.7 ng·h/g |
| C=C(C)[C@@H]1CCC(C)=C[C@H]1c1c(O)cc(CCCCCCC)cc1O | 42 | 14.1 | 0.3 |  |
| C=C(C)[C@@H]1CCC(C)=C[C@H]1c1c(OCC)cc(CCCCC)cc1OCC |  | > 200 |  |  |
| C=C(C)[C@@H]1CCC(C)=C[C@H]1c1c(O)cc(CCCCC)cc1OCC |  | 176 | 1.1 |  |
| C=C(C)[C@@H]1CCC(C)=C[C@H]1c1c(O)cc(C(C)n2ccnn2)cc1O (stereo partly specified) | 35.9 | 77.1 | 2.1 |  |
| C=C(C)[C@@H]1CCC(C)=C[C@H]1c1c(O)cc(C(C)n2ccnc2)cc1O (stereo partly specified) | 4.4 | 32.6 | 7.4 |  |
